Laboratory results: patent publication US9556205B2, “Fungicide N-[(trisubstitutedsilyl)methyl]-carboxamide derivatives” (BAYER INTELLECTUAL PROPERTY GMBH, priority 2010, dated 2017)

Experiments:
[1] = test system: Alternaria solani; assay: In vivo preventive test on Alternaria solani (tomato); conditions: 500 ppm of active ingredient, evaluated 7 days after inoculation
Experimental: Solvent: 49 parts by weight of N,N-dimethylformamide Emulsifier: 1 part by weight of Alkylarylpolyglycolether To produce a suitable preparation of active compound, 1 part by weight of active compound is mixed with the stated amounts of solvent and emulsifier, and the concentrate is diluted with water to the desired concentration. To test for preventive activity, young plants are sprayed with the preparation of active compound at the stated rate of application. One day after this treatment, the plants are inoculated with an aqueous spore suspension of Alternaria solani. […] Then the plants are placed in an incubation cabinet at approximately 20° C. and a relative atmospheric humidity of 96%.

[2] = test system: Aflatoxins production by Aspergillus parasiticus; type: cell-based
[3] = test system: Aspergillus parasiticus; type: cell-based; conditions: 7 days at 20° C., OD620nm
[4] = test system: Pyrenophora teres; assay: In vivo preventive test on Pyrenophora teres (barley), Example F; conditions: 500 ppm of active ingredient, evaluated 7-9 days after inoculation
Experimental: Solvent: 49 parts by weight of N,N-dimethylformamide Emulsifier: 1 part by weight of alkylaryl polyglycol ether To produce a suitable preparation of active compound, 1 part by weight of active compound is mixed with the stated amounts of solvent and emulsifier, and the concentrate is diluted with water to the desired concentration. To test for preventive activity, young plants are sprayed with the preparation of active compound at the stated rate of application. One day after this treatment, the plants are inoculated with an aqueous spore suspension of Pyrenophora teres. […] Then the plants are placed in a greenhouse at a temperature of approximately 20° C. and a relative atmospheric humidity of approximately 80%.

[5] = log P by HPLC on reversed-phase column (C18), EEC Directive 79/831 Annex V.A8; type: physicochemical; conditions: 40° C., 0.1% aqueous formic acid and acetonitrile, linear gradient 10% to 90% acetonitrile
Experimental: In table 1, the log P values were determined in accordance with EEC Directive 79/831 Annex V.A8 by HPLC (High Performance Liquid Chromatography) on a reversed-phase column (C18), using the method described below:
Temperature: 40° C.; Mobile phases: 0.1% aqueous formic acid and acetonitrile; linear gradient from 10% acetonitrile to 90% acetonitrile.
Calibration was carried out using unbranched alkan-2-ones (comprising 3 to 16 carbon atoms) with known log P values (determination of the log P values by the retention times using linear interpolation between two successive alkanones). lambda-max-values were determined using UV-spectra from 200 nm to 400 nm and the peak values of the chromatographic signals.

Molecule	Efficacy [1] [%]	% Inhibition of Aflatoxin at 50 μM [2] [%]	% Inhibition of fungal growth at 50 μM [3] [%]	Efficacy [4] [%]	logP [5]	chromatographic logP [5]
Cn1nc(C(F)F)c(C(=O)NC[Si](C)(C)c2ccccc2)c1F [Example 1]	100	100	93	100	3.13	
Cn1nc(C(F)F)c(C(=O)NC[Si](C)(C)c2ccccc2)c1Cl [Example 2]	95	87	71	100	3.31	
Cc1cc(C(=O)NC[Si](C)(C)c2ccccc2)c(C)o1 [Example 3]					3.48	
Cc1nn(C)c(F)c1C(=O)N(C[Si](C)(C)c1ccccc1)C1CC1 [Example 8, N-cyclopropyl-N-{[dimethyl(phenyl)silyl]methyl}-5-fluoro-1,3-dimethyl-1H-pyrazole-4-carboxamide]						3.19
Cc1cc(C(=O)NC[Si](C)(C)c2ccccc2Cl)c(C)o1 [Example 13]					3.85	
Cn1nc(C(F)F)c(C(=O)NC[Si](C)(C)c2ccccc2Cl)c1Cl [Example 14]					3.69	
Cn1nc(C(F)F)c(C(=S)NC[Si](C)(C)c2ccccc2Cl)c1F [Example 16]	70				4.11	
Cc1cc(C(=O)N(C[Si](C)(C)c2ccccc2Cl)C2CC2)c(C)o1 [Example 22]	95			80	4.74	
Cc1cc(C(=O)NC[Si](C)(C)c2cccc(Cl)c2)c(C)o1 [Example 23]					3.92	
Cn1cc(C(=O)NC[Si](C)(C)c2cccc(Cl)c2)c(C(F)F)c1 [Example 24]					3.58	
Cn1nc(C(F)F)c(C(=O)NC[Si](C)(C)c2cccc(Cl)c2)c1Cl [Example 25]	100	99	84	100	3.71	
Cn1nc(C(F)F)c(C(=O)NC[Si](C)(C)c2cccc(Cl)c2)c1F [Example 26]	100	100	100	100	3.55	
Cc1cc(C(=O)N(C[Si](C)(C)c2cccc(Cl)c2)C2CC2)c(C)o1 [Example 29]	94			95	4.78	
Cc1cc(C(=O)NC[Si](C)(C)c2ccc(Cl)cc2Cl)c(C)o1 [Example 33]					4.46	
Cn1cc(C(=O)NC[Si](C)(C)c2ccc(Cl)cc2Cl)c(C(F)F)c1 [Example 34]					4.06	
Cn1nc(C(F)F)c(C(=O)NC[Si](C)(C)c2ccc(Cl)cc2Cl)c1Cl [Example 35]	90				4.25	
Cn1nc(C(F)F)c(C(=O)NC[Si](C)(C)c2ccc(Cl)cc2Cl)c1F [Example 36]	100	100	84	100	4.06	
Cn1nc(C(F)F)c(C(=S)NC[Si](C)(C)c2ccc(Cl)cc2Cl)c1F [Example 37]					4.74	
Cc1nc(C(F)F)c(C(=O)N(C[Si](C)(C)c2ccc(Cl)cc2Cl)C2CC2)s1 [Example 43]	100			100	5.00	
Cc1cc(C(=O)NC[Si](C)(C)c2cc(Cl)cc(Cl)c2)c(C)o1 [Example 44]					4.54	
Cn1cc(C(=O)NC[Si](C)(C)c2cc(Cl)cc(Cl)c2)c(C(F)F)c1 [Example 45]					4.11	
Cn1nc(C(F)F)c(C(=O)NC[Si](C)(C)c2cc(Cl)cc(Cl)c2)c1Cl [Example 46]	95	99	84	100	4.27	
Cn1nc(C(F)F)c(C(=O)NC[Si](C)(C)c2cc(Cl)cc(Cl)c2)c1F [Example 47]	100	100	100	95	4.08	
Cc1cc(C(=O)N(C[Si](C)(C)c2cc(Cl)cc(Cl)c2)C2CC2)c(C)o1 [Example 50]	100			95	5.51	

Molecule	Efficacy [1] [%]	% Inhibition of Aflatoxin at 50 μM [2] [%]	% Inhibition of fungal growth at 50 μM [3] [%]	Efficacy [4] [%]	logP [5]	chromatographic logP [5]
Cc1nc(C(F)F)c(C(=O)N(C[Si](C)(C)c2cc(Cl)cc(Cl)c2)C2CC2)s1 [Example 53]	80			95	4.92	
Cn1nc(C(F)F)c(C(=O)N(C[Si](C)(C)Cc2ccccc2)C2CC2)c1Cl [Example 54]	95			100	4.20	
Cc1cc(C(=O)N(C[Si](C)(C)Cc2ccccc2)C2CC2)c(C)o1 [Example 56]					4.67	
Cn1nc(C(F)F)c(C(=S)N(C[Si](C)(C)Cc2ccccc2)C2CC2)c1F [Example 57]	95				4.67	
Cc1cc(C(=O)N(C[Si](C)(C)Cc2ccccc2Cl)C2CC2)c(C)o1 [Example 58]					5.08	
Cn1cc(C(=O)N(C[Si](C)(C)Cc2ccccc2Cl)C2CC2)c(C(F)F)c1 [Example 59]				70	4.56	
Cn1nc(C(F)F)c(C(=O)N(C[Si](C)(C)Cc2ccccc2Cl)C2CC2)c1Cl [Example 60]	95	100	84	95	4.56	
Cn1nc(C(F)F)c(C(=O)N(C[Si](C)(C)Cc2ccccc2Cl)C2CC2)c1F [Example 61]	100	100	100	100	4.41	
Cn1nc(C(F)F)c(C(=S)N(C[Si](C)(C)Cc2ccccc2Cl)C2CC2)c1F [Example 62]	80			100	5.00	
Cc1cc(C(=O)N(C[Si](C)(C)Cc2cccc(Cl)c2)C2CC2)c(C)o1 [Example 63]	70				5.11	
Cn1cc(C(=O)N(C[Si](C)(C)Cc2cccc(Cl)c2)C2CC2)c(C(F)F)c1 [Example 64]					4.62	
Cn1nc(C(F)F)c(C(=O)N(C[Si](C)(C)Cc2cccc(Cl)c2)C2CC2)c1Cl [Example 65]	95	82	72	100	4.59	
Cn1nc(C(F)F)c(C(=O)N(C[Si](C)(C)Cc2cccc(Cl)c2)C2CC2)c1F [Example 66]	100	100	100	100	4.44	
Cn1nc(C(F)F)c(C(=O)N(C[Si](C)(C)Cc2cc(Cl)cc(Cl)c2)C2CC2)c1Cl [Example 67]	78	100	86		5.14	
Cn1cc(C(=O)N(C[Si](C)(C)Cc2ccc(Cl)cc2Cl)C2CC2)c(C(F)F)c1 [Example 68]	70				5.19	
Cn1nc(C(F)F)c(C(=O)N(C[Si](C)(C)Cc2ccc(Cl)cc2Cl)C2CC2)c1Cl [Example 69]	100	100	85	100	5.19	
Cn1nc(C(F)F)c(C(=O)N(C[Si](C)(C)Cc2ccc(Cl)cc2Cl)C2CC2)c1F [Example 70]	100	100	100	100	5.03	
Cn1nc(C(F)F)c(C(=S)N(C[Si](C)(C)Cc2ccc(Cl)cc2Cl)C2CC2)c1F [Example 71]	95			100	5.57	
Cn1nc(C(F)F)c(C(=O)N(C[Si](C)(C)Cc2cc(Cl)cc(Cl)c2)C2CC2)c1F [Example 72]	89	100	100		4.98	
Cc1cc(C(=O)N(C[Si](C)(C)Cc2ccc(Cl)cc2Cl)C2CC2)c(C)o1 [Example 73]					5.78	
Cn1nc(C(F)F)c(C(=O)N(C[Si](C)(C)c2ccc3ccccc3c2)C2CC2)c1Cl [Example 77]					4.51	
C[Si](C)(CN(C(=O)c1ccsc1I)C1CC1)c1ccc2ccccc2c1 [Example 78]					5.17	
N-cyclohexyl-N-{[dimethyl(phenyl)silyl]methyl}-2-furamide [Example 5]					3.73	
